≈ marks a conversion by molar mass, not a printed value. Calls of active or inactive are those of the source. No cut-off for these calls is given here.
How the values were obtained:
Betapolyomavirus macacae [1] = test: Induction of DNA-strand scission activity in SV40 form 1 DNA at 25 ug/mL
[2] = Cytotoxicity against human BC1 cells; format: functional; conditions: read-out: ED50 (the source's name)
HT = test: Cytotoxicity against human HT cells; format: functional; conditions: read-out: ED50 (the source's name)
Lu1 = test: Cytotoxicity against human Lu1 cells; format: functional; conditions: read-out: ED50 (the source's name)
SK-MEL-2 = test: Cytotoxicity against human SK-MEL-2 cells; format: functional; conditions: read-out: ED50 (the source's name)
Col2 = test: Cytotoxicity against human Col2 cells; format: functional; conditions: read-out: ED50 (the source's name)
KB = test: Cytotoxicity against human KB cells; format: functional; conditions: read-out: ED50 (the source's name)
[3] = Cytotoxicity against human KBVIN cells in presence of vinblastine; format: functional; conditions: read-out: ED50 (the source's name)
[4] = Cytotoxicity against human KBVIN cells in absence of vinblastine; format: functional; conditions: read-out: ED50 (the source's name)
A-431 = test: Cytotoxicity against human A431 cells; format: functional; conditions: read-out: ED50 (the source's name)
LNCaP = test: Cytotoxicity against human LNCAP cells; format: functional; conditions: read-out: ED50 (the source's name)
ZR-75-1 = test: Cytotoxicity against human ZR-75-1 cells; format: functional; conditions: read-out: ED50 (the source's name)
[5] = Cytotoxicity against human U373 cells; format: functional, U-373MG ATCC; conditions: U373 MG, read-out: ED50 (the source's name)
Betapolyomavirus macacae [6] = test: Induction of DNA-strand scission activity in SV40 form 1 DNA at 0.1 ug/mL

Activity (Betapolyomavirus macacae [1]) | Activity (Betapolyomavirus macacae [6]) | Compound | EC50 [2] [µg/mL] | EC50 (HT) [µg/mL] | EC50 (Lu1) [µg/mL] | EC50 (SK-MEL-2) [µg/mL] | EC50 (Col2) [µg/mL] | EC50 (KB) [µg/mL] | EC50 [3] [µg/mL] | EC50 [4] [µg/mL] | EC50 (A-431) [µg/mL] | EC50 (LNCaP) [µg/mL] | EC50 (ZR-75-1) [µg/mL] | EC50 [5] [µg/mL]
inactive |  | CC(C)=CCCC1(C)C=Cc2c(-c3oc4cc(O)cc(O)c4c(=O)c3O)ccc(O)c2O1 (configuration not stated) [PETALOPURPURENOL] | 9.9 (≈ 22.7 µM) | 7.3 (≈ 16.7 µM) | 14.8 (≈ 33.9 µM) | 17.1 (≈ 39.2 µM) | > 20 | 18.9 (≈ 43.3 µM) | 1 | 6.7 (≈ 15.4 µM) | 11.9 (≈ 27.3 µM) | 14.8 (≈ 33.9 µM) | 4.1 (≈ 9.39 µM) | 13.3 (≈ 30.5 µM)
Active |  | CC(C)=CCc1cc(O)c(O)c(CC=C(C)C)c1[C@H]1Oc2c(CC=C(C)C)c(O)cc(O)c2C(=O)[C@@H]1O [PETALOSTEMUMOL] | > 20 | 10.3 (≈ 20.3 µM) | > 20 | > 20 | > 20 | > 20 | 1.2 | > 20 | > 20 | > 20 | 17.1 (≈ 33.6 µM) | > 20
 | Active | BLEOMYCIN SULFATE |  |  |  |  |  |  |  |  |  |  |  | 
